Reference: patent publication US9180183B2, “Phospholipid drug analogs” (Telormedix SA, priority 2010, dated 2015)
“Also recorded” adds a separate entry of the source.

Tests used:
[1] = tested on: 73 primary molecular targets (human recombinant receptor types and subtypes or membrane fraction from rodent tissue homogenates); assay: Radioligand binding assay among 73 primary molecular targets; settings: SC12 at 30 microM
[2] = tested on: Escherichia coli WP2 uvrA; assay: Bacterial mutation assay, Escherichia coli; type: cell-based; settings: absence or presence of S9 metabolism
Procedure: The five tester strains TA1535, TA1537, TA98, TA100 and WP2 uvrA were used. Experiments were performed both in the absence and presence of metabolic activation, using liver S9 fraction from rats pre-treated with phenobarbitone and betanaphthoflavone. SC12 was used as a solution in dimethylsulfoxide (DMSO).

[3] = tested on: AY-27 rat bladder cancer cell-line; settings: day 12
[4] = tested on: human whole blood; assay: Cytokine secretion in human whole blood assay (ELISA); type: cell-based; settings: for IL-12p40 levels: all donors
Procedure: Before drawing the blood, the compounds were added to 96 well round bottom plates in a 10× diluted sample at 20 ul. The compounds were diluted in RPMI media without serum but with antibiotics. Antibiotics were added at a 10× concentration. After drawing the blood, the whole blood sample was gently mixed to obtain a homogeneous sample, and 180 ul was added to each well.
All compounds were setup in concentrations at 0-0.01-0.03-0.1-0.5-2.0-10.0 micromolar as the final concentration. Vehicle control was DMSO control, where we used the highest concentration used for the compounds. After addition of blood, all plates were gently agitated at 37° C. and 5% CO2 until harvest.
Concentrations of cytokines were determined by ELISA from R&D Systems. The results were analyzed in Graph Pad Prism in order to prepare dose-response curves, and for determination of EC50 values. FACS analysis was made by using Becton-Dickinson FACSDiva software and subsequently illustrated in Graph Pad Prism.

[5] = Stability study of SC12 under storage conditions (HPLC); type: physicochemical
[6] = target: CYP3A5 (Homo sapiens (Human), UniProt P20815); assay: Fluorescent High Throughput P450 assay CYP3A5; type: in vitro ADME
Chain of CYP3A5 (P20815 whole entry, looked up): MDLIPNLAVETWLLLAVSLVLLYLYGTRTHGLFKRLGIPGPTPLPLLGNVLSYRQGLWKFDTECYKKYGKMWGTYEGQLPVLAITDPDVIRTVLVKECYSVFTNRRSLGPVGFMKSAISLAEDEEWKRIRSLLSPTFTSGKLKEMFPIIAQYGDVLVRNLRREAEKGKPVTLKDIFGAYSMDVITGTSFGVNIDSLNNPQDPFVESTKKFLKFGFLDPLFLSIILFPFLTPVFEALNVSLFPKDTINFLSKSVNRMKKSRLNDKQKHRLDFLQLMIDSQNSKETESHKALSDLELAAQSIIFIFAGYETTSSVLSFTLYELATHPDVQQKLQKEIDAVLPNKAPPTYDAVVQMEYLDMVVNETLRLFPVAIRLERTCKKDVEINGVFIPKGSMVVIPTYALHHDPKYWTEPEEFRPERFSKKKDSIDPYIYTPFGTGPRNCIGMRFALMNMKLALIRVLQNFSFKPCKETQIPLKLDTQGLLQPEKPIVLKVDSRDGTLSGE
Procedure: (§1) Inhibition of the P450 isoforms was measured in specific assays using specific substrates that become fluorescent upon CYP metabolism. Compounds, dissolved in ACN (acetonitrile) (CYP2E1, CYP2C8, CYP2B6, CYP3A5) or DMSO (all remaining isoforms), were tested in duplicate (n=2) in concentration-response curves (eight concentrations) in a 96-well plate containing incubation/NADPH regenerating buffer. Specific isoenzymes and substrates were added and incubated at 37° C. Reactions were terminated at different times, depending on the assays, and plates read on a Fluoroskan Ascent at the appropriate emission/excitation wavelengths. Concentration-response curves performed in duplicate for known inhibitors for each isoenzyme were tested in every assay as positive control.

[7] = Solubility in organic solvents; type: physicochemical; settings: especially in ACN
[8] = target: CYP2E1 (Homo sapiens (Human), UniProt P05181); assay: Fluorescent High Throughput P450 assay CYP2E1; type: in vitro ADME
Chain of CYP2E1 (P05181 whole entry, looked up): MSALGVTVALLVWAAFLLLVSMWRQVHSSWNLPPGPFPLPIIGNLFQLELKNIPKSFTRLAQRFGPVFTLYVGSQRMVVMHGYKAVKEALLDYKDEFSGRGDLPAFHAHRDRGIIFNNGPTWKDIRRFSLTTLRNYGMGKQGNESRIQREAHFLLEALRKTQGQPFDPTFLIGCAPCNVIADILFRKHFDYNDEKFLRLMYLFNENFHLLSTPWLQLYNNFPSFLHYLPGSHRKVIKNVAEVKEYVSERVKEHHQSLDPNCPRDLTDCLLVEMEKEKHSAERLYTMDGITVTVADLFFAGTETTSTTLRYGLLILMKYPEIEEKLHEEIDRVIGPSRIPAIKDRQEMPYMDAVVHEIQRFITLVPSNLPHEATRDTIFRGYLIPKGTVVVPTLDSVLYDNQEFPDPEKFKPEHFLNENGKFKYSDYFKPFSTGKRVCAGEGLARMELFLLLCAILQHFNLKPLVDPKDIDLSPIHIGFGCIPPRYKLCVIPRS
Procedure: as §1

[9] = tested on: PBMCs; assay: IL-6 and TNF-alpha secretion in PBMCs (ELISA), Model 2; type: cell-based, human; settings: three donors
[10] = tested on: HLA-DR+/CD11c-/CD123+ pDCs; assay: FACS analysis of plasmacytoid DC activation in whole blood; type: cell-based, human; settings: 24 hours; 0.1 and 0.5 uM; three donors
Procedure: A flow cytometric analysis was performed on whole blood from three donors after treatment with two compound concentrations for 24 h. The FACS analysis for donor 1 and donor 2 was made on another day than donor 3. The compound concentrations were as follows:
The FACS analysis was used to identify whether the test compounds could induce activation of B cells, and two different subsets of dendritic cells, namely the myeloid CD11c+/CD123− DCs and the plasmacytoid CD11c−/CD123+ DCs. The following markers were studied to identify the activation status of the different subsets:
The FACS staining was performed according to the manufacturer's instructions. Lysis of red blood cells was performed before FACS staining in order to minimize auto-florescence. To include as many B cells and DCs in the study as possible the FACS analyses were performed on 500,000 cells in total for each staining. A P1 gate was set only to include relevant cells on FSC vs. SSC (see FIGS. 12-15). The results of the individual analysis were present as Mean Fluorescence Intensity
The analysis of pDCs was based on HLA-DR+/CD11c−/CD123+ cells, thus all analyzed cells were included in the HLA-DR+ (P3) gate and CD11c−/CD123+ (Q1) gate. (FIGS. 13-15).

[11] = Plasma stability in human plasma (second experiment); settings: up to 120 min
Procedure: Second experiment: Test compounds (5 mM in DMSO) were diluted at the final concentration of 250 μM with ACN-MeOH 1:1.
Human plasma (1.180 ml) was spiked with 20 μl of 250 μM solution of the compound (4.16 μM final concentration) and aliquots of 50 μl volume were taken at 0, 15, 30, 60, 120 min and 5 hrs, and immediately quenched with 200 μl of a solution of Verapamil 250 ng/ml (internal standard, I.S.) in ACN:MeOH 95:5. Samples were then centrifuged for 20 min at 3000 rpm at 10° C. and analyzed as reported below. […] The supernatant fractions were analyzed by LC/MS/MS. Zero-time incubations were used as 100% values.
Stability was calculated as percentage remaining of the area ratio compound/I.S. at each time point vs. area ratio compound/I.S. at time 0 min.

[12] = tested on: HLA-DR+/CD20+ B cells; assay: FACS analysis of B cell activation in whole blood; type: cell-based, human; settings: 24 hours; 2 and 10 uM; three donors
Procedure: The FACS staining was performed according to the manufacturer's instructions. Lysis of red blood cells was performed before FACS staining in order to minimize auto-florescence. To include as many B cells and DCs in the study as possible the FACS analyses were performed on 500,000 cells in total for each staining. […] The results of the individual analysis were present as Mean Fluorescence Intensity
The analysis of expression of the activation marker CD40 on B cells was made on double positive HLA-DR (MHC class II) (P4 gate) and CD20 cells (B cell marker) (P8 gate).

[13] = target: CYP3A4 (Homo sapiens (Human), UniProt P08684); assay: Fluorescent High Throughput P450 assay CYP3A4; type: in vitro ADME
Chain of CYP3A4 (P08684 whole entry, looked up): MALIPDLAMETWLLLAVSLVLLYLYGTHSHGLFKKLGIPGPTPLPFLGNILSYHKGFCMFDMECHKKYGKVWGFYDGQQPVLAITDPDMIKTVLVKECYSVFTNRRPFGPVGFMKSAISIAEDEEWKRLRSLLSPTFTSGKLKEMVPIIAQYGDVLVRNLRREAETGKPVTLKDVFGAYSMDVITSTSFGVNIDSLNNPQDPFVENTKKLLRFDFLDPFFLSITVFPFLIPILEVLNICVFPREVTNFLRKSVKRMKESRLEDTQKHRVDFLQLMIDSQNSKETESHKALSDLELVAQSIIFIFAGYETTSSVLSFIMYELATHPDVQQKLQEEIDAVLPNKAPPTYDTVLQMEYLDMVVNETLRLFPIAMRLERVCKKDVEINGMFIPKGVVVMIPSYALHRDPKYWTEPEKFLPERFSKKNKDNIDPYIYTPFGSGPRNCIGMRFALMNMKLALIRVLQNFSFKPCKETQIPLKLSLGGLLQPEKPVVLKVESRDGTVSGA
Procedure: as §1

[14] = Heat stability of solid samples at 80° C. (HPLC); type: physicochemical; settings: solid sample
Procedure: Solid samples of each compound were maintained at 80° C. and analyzed by HPLC.

[15] = tested on: AY-27 rat bladder cancer cell-line; settings: in vivo
[16] = whole blood, 6 hours incubation
[17] = solid, RT and light, t = 20 days
[18] = solid, external T and light, t = 20 days
[19] = solution in CHCl3, RT and light, t = 0
[20] = solution in CHCl3, RT and light, t = 20 days

CCCCCCCCCCCC(=O)OCC(COP(=O)(O)OCCNC(=O)c1ccc(Cn2c(=O)[nH]c3c(N)nc(OCCOC)nc32)cc1)OC(=O)CCCCCCCCCCC (centres unmarked) [SC12]
binding to receptors associated with pain-related syndromes (e.g. adenosine and sodium channel) [1]: did not bind
toxicity to tester strains ([2]; toxicity test, 50.0-5000 micrograms/plate): No toxicity was observed
reverse mutation / revertant colonies ([2]; up to 5000 micrograms/plate): did not induce two-fold increases in the number of revertant colonies; also recorded: does not induce reverse mutation
Range of weight of the rat bladders ([3]; 0.5 ml intravesical instillation (Imiquimod 0.1%, SC12 0.38%) on day 2 and 5): 0.0780-0.1422 grams
Tumor free (% of rats) ([3]; of 14 rats per group): 42.9%
Tumor free (number of rats) ([3]; of 14 rats per group): 6
pT2 Tumor (% of rats) ([3]; of 14 rats per group): 50.0%
pT2 Tumor (number of rats) ([3]; of 14 rats per group): 7
pTa Tumor (% of rats) ([3]; of 14 rats per group): 7.1%
pTa Tumor (number of rats) ([3]; of 14 rats per group): 1
induction of DC secreted cytokines (in words) ([4]; supernatant from whole blood cell assays): potent inducers
range of IL-6 secretion ([4]; whole blood, three donors): 4000 to 8000 pg/mL
ranges of IFN-alpha secreted ([4]; whole blood, three donors): 1000 to 2000 pg/mL
IL-10 production (in words) [4, 16]: no IL-10 production was seen
IL-12p40 levels [4, 16]: 8.000 to 12.000 pg/mL
IL-12p40 levels ([4]; whole blood, 24 hours incubation): 20.000 to 25.000 pg/mL
HPLC % at RRT = 1 (main peak) [5, 17]: RRT = 1: 87.8%
HPLC % of impurity at RRT = 0.88 [5, 17]: RRT = 0.88: 6.2%
HPLC % of impurity at RRT = 1.21 [5, 17]: RRT = 1.21: 4.8%
HPLC % at RRT = 1 (main peak) [5, 18]: RRT = 1: 84.0%
HPLC % of impurity at RRT = 0.88 [5, 18]: RRT = 0.88: 6.6%
HPLC % of impurity at RRT = 1.21 [5, 18]: RRT = 1.21: 7.1%
HPLC % at RRT = 1 (main peak) [5, 19]: RRT = 1: 90.3%
HPLC % of impurity at RRT = 0.46 [5, 19]: RRT = 0.46: 5.7%
HPLC % of impurity at RRT = 1.21 [5, 19]: RRT = 1.21: 0.9%
HPLC % at RRT = 1 (main peak) [5, 20]: RRT = 1: 88.0%
HPLC % of impurity at RRT = 0.88 [5, 20]: RRT = 0.88: 6.2%
HPLC % of impurity at RRT = 1.21 [5, 20]: RRT = 1.21: 5.0%
inhibition of CYP3A5 (in words) [6]: moderate inhibition
solubility [7]: low solubility
inhibition of CYP2E1 (in words) [8]: moderate inhibition
induction of IL-6 and TNF-alpha secretion (in words) [9]: most potent TLR7 agonists
CD80 expression in pDCs (MFI, in words) [10]: induces a slightly higher CD80 expression than compound A
CD86 expression in pDCs (MFI, in words) [10]: tendency to induce higher CD86 expression than compound A
stability classification [11]: stable
CD40 expression (MFI, in words) [12]: induced CD40 expression in donor 1 and donor 2 in all tested concentrations
inhibition of CYP3A4 (in words) [13]: moderate inhibition
HPLC purity ([14]; After 2 hrs at 80° C.): 90% HPLC
HPLC purity ([14]; After 22 hrs at 80° C.): 88% HPLC
HPLC purity ([14]; t = 0): 90% HPLC
signs of toxicity (in words) [15]: No signs of toxicity
